From PMC10252614 (International Journal of Molecular Sciences, 2023)

Experiments:
human BChE (hBChE) = target: T1, human BChE (hBChE) (Homo sapiens, UniProt P06276); test: hBChE inhibition, modified Ellman's method; format: biochemical; conditions: 10^-6 M
T1 construct: made in house
Procedure: (§1) N-Methylpropargylamine-quinazolines were tested for their inhibitory potency against human AChE (hAChE) and human BChE (hBChE) enzymes using the modified spectrophotometric method of Ellman et al..
(§2) The human recombinant BChE and AChE were prepared at the Department of Toxicology and Military Pharmacy (Faculty of Military Health Sciences, Hradec Kralove, Czech Republic). 5,5′-dithiobis(2-nitrobenzoic acid) (Ellman’s reagent, DTNB), phosphate buffer (PB, pH 7.4), acetylthiocholine (ATC) and butyrylthiocholine (BTC), were purchased from Sigma-Aldrich, Prague, Czech Republic. For measuring purposes, polystyrene Nunc 96-well microplates with a flat-bottom shape (ThermoFisher Scientific, Waltham, MA, USA) were utilized. All the assays were carried out in 0.1 M KH2PO4/K2HPO4 buffer, pH 7.4. Enzyme solutions were prepared at 2.0 units/mL in 2 mL aliquots. The assay medium consisted of a 0.1 M phosphate buffer (pH 7.4), 0.01 M DTNB, the enzyme, and 0.01 M substrate (ATC/BTC iodide solution). Concentration 1 µM was tested and the % of inhibition was calculated. Tested compounds were pre-incubated for 5 min. The reaction was started by immediate addition of 20 μL of the substrate. […] Each concentration was assayed in triplicate. Software GraphPad Prism 5 (San Diego, CA, USA) was used for the statistical data evaluation.

GluN1/GluN2B receptor = target: T2, GluN1/GluN2B receptor (Homo sapiens, UniProt Q05586+Q13224); test: whole-cell patch-clamp on HEK293 cells expressing GluN1/GluN2B NMDAR; format: cell-based; conditions: HEK293, 10 µM, −60 mV, ± SEM (n = 5–6), 100% = full inhibition; read-out: Relative inhibition (RI) of GluN1/GluN2B NMDAR
T2 construct: expressed in transfected cells; host or cells: HEK293
T2 sequence (Q13224 27-1484, other chains not shown): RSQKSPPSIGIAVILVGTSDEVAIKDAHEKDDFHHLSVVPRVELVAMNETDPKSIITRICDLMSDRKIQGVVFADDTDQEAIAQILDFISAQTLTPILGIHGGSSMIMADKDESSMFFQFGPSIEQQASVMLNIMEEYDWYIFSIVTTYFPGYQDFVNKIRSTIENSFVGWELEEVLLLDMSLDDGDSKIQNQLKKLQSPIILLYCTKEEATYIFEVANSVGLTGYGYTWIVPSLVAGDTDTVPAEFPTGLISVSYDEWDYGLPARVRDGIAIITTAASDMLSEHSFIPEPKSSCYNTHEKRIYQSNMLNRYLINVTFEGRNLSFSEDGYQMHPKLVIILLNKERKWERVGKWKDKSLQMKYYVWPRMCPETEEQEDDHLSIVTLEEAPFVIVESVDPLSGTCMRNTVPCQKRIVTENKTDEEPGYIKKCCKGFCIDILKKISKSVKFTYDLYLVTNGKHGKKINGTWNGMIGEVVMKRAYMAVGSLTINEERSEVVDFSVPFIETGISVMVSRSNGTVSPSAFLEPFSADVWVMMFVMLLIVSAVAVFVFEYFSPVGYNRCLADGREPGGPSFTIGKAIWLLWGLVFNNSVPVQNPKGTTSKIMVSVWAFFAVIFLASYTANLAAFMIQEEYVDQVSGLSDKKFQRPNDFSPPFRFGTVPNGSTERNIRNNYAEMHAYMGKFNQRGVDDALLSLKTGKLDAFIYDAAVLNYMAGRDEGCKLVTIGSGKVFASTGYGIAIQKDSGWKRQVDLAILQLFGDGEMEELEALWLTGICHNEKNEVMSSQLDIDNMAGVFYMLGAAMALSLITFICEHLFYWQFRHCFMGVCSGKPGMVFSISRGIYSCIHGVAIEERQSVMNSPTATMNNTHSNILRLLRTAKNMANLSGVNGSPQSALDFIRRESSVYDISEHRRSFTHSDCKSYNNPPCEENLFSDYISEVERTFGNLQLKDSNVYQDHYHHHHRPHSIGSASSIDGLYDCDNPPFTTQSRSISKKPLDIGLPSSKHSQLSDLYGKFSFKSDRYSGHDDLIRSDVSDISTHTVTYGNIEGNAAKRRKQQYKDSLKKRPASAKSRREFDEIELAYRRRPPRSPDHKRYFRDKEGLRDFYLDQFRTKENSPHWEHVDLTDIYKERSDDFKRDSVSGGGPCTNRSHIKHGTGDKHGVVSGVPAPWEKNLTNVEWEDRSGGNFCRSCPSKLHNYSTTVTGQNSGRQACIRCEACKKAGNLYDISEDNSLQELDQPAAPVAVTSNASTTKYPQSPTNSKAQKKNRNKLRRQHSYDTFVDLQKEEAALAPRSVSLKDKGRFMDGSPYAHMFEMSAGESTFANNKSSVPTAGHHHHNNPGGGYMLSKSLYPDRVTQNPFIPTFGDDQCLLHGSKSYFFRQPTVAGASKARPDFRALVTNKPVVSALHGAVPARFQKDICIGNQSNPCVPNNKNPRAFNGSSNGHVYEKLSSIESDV
Procedure: We tested the derivatives by the whole-cell patch-clamp method at a concentration of 10 μM under steady-state conditions in the presence of the saturating concentrations of NMDAR (co-)agonists (L-glutamate and glycine). […] Whole-cell patch-clamp recordings were performed using an Axopatch 200B amplifier (Molecular Devices, LLC., San Jose, CA, USA) at a holding membrane potential of −60 mV. HEK293 cells were co-transfected with DNA vectors encoding human versions of the GluN1-4a (GluN1) and GluN2B subunits and green fluorescent protein (GFP) in a 1:1:1 ratio using 0.9 μL PolyMag reagent (OZ Biosciences SAS, Marseille, France) in 50 μL Opti-MEM I [56, 57]. After 15 min on a magnetic plate, HEK293 cells were trypsinized and resuspended in Opti-MEM I medium containing 1% FBS, 2 mM MgCl2 and 3 mM kynurenic acid (to reduce cell death caused by activation of NMDARs). Electrophysiological measurements were performed 24–48 h after completion of transfection at room temperature. The extracellular recording solution (ECS) contained (in mM): 160 NaCl, 2.5 KCl, 10 HEPES, 10 D-glucose, 0.2 EDTA, and 0.7 CaCl2 (pH 7.3 with NaOH). […] A microprocessor-controlled rapid perfusion system with a time constant for solution exchange around the recorded cell of ~20 ms was used. Currents were low-pass filtered at 2 kHz using an eight-pole Bessel filter, digitized at 5 kHz, and recorded using the pCLAMP 10 program (Molecular Devices, LLC., San Jose, CA, USA). The co-agonist glycine (100 µM) was applied throughout the recording, and the agonist L-glutamate (1 mM) was used to elicit responses of GluN1/GluN2B receptors.

human AChE (hAChE) = target: T3, human AChE (hAChE) (Homo sapiens, UniProt P22303); test: hAChE inhibition, modified Ellman's method; format: biochemical; conditions: read-out: % of AChE inhibition
T3 construct: made in house
T3 sequence (P22303 32-614): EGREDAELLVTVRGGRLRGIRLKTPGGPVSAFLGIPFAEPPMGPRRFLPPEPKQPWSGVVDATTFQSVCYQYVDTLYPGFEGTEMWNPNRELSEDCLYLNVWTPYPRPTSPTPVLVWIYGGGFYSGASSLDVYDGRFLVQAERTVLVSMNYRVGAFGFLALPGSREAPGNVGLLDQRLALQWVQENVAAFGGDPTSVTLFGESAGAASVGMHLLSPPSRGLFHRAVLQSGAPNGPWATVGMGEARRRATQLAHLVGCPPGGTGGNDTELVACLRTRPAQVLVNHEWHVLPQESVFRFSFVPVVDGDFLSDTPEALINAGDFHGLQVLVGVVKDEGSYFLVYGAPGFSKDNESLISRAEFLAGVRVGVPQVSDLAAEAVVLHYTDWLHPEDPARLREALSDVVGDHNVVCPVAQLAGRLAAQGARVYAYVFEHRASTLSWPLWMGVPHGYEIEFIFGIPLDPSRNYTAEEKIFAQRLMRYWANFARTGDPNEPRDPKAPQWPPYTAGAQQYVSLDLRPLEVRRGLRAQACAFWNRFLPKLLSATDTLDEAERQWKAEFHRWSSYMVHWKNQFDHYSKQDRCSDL
Procedure: as §1, §2

in vitro = conditions: human

T1 sequence (P06276 29-602): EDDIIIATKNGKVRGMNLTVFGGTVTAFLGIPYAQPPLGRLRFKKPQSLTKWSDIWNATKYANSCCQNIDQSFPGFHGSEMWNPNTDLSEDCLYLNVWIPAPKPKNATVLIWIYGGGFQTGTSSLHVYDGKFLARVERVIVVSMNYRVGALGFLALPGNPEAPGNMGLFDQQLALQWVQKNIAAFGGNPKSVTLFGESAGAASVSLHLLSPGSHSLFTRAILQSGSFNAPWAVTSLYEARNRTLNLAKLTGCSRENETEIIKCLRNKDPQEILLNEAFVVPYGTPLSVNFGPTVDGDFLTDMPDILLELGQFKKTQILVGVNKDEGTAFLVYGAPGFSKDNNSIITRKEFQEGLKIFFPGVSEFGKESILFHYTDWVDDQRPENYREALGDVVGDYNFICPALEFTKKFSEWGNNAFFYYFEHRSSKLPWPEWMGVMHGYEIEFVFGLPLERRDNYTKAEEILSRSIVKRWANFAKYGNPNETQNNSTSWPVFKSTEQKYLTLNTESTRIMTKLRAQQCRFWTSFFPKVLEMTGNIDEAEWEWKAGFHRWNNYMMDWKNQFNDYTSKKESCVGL

SMILES: COc1ccc2nc3c(c(N)c2c1)CCCC3 [7-MEOTA, reference compound]
- inhibition at 1 µM (human BChE (hBChE)): 18%
- inhibition at 10 µM (GluN1/GluN2B receptor): ~60%

SMILES: C#CCN(C)c1nc(N)c2ccccc2n1 [I-6a, N2-methyl-N2-(prop-2-yn-1-yl)quinazoline-2,4-diamine]
- inhibition at 1 µM (human AChE (hAChE)): 5%
- inhibition at 1 µM (human BChE (hBChE)): 0%

SMILES: C#CCN(C)c1nc(NC)c2ccccc2n1 [I-6b, N2,N4-dimethyl-N2-(prop-2-yn-1-yl)quinazoline-2,4-diamine]
- inhibition at 1 µM (human AChE (hAChE)): 5%
- inhibition at 1 µM (human BChE (hBChE)): 3%

SMILES: C#CCN(C)c1nc(NCC)c2ccccc2n1 [I-6c, N4-ethyl-N2-methyl-N2-(prop-2-yn-1-yl)quinazoline-2,4-diamine]
- inhibition at 1 µM (human AChE (hAChE)): 4%
- inhibition at 1 µM (human BChE (hBChE)): 0%

SMILES: C#CCN(C)c1nc(NC(C)C)c2ccccc2n1 [I-6d, N2-methyl-N2-(prop-2-yn-1-yl)-N4-(propan-2-yl)quinazoline-2,4-diamine]
- inhibition at 1 µM (human AChE (hAChE)): 4%
- inhibition at 1 µM (human BChE (hBChE)): 1%

SMILES: C#CCN(C)c1nc(NCCOC)c2ccccc2n1 [I-6f, N4-(2-methoxyethyl)-N2-methyl-N2-(prop-2-yn-1-yl)quinazoline-2,4-diamine]
- inhibition at 1 µM (human AChE (hAChE)): 5%
- inhibition at 1 µM (human BChE (hBChE)): 1%

SMILES: C#CCN(C)c1nc(NC2CC2)c2ccccc2n1 [I-6g, N4-cyclopropyl-N2-methyl-N2-(prop-2-yn-1-yl)quinazoline-2,4-diamine]
- inhibition at 1 µM (human AChE (hAChE)): 4%
- inhibition at 1 µM (human BChE (hBChE)): 2%

SMILES: C#CCN(C)c1nc(N)c2ccc(Cl)cc2n1 [II-6a, 7-chloro-N2-methyl-N2-(prop-2-yn-1-yl)quinazoline-2,4-diamine]
- inhibition at 1 µM (human AChE (hAChE)): 7%
- inhibition at 1 µM (human BChE (hBChE)): 2%

SMILES: C#CCN(C)c1nc(NC)c2ccc(Cl)cc2n1 [II-6b, 7-chloro-N2,N4-dimethyl-N2-(prop-2-yn-1-yl)quinazoline-2,4-diamine]
- inhibition at 1 µM (human AChE (hAChE)): 15%
- inhibition at 1 µM (human BChE (hBChE)): 2%

SMILES: C#CCN(C)c1nc(NCC)c2ccc(Cl)cc2n1 [II-6c, 7-chloro-N4-ethyl-N2-methyl-N2-(prop-2-yn-1-yl)quinazoline-2,4-diamine]
- inhibition at 1 µM (human AChE (hAChE)): 4%
- inhibition at 1 µM (human BChE (hBChE)): 0%

SMILES: C#CCN(C)c1nc(NC(C)C)c2ccc(Cl)cc2n1 [II-6d, 7-chloro-N2-methyl-N2-(prop-2-yn-1-yl)-N4-(propan-2-yl)quinazoline-2,4-diamine]
- inhibition at 1 µM (human AChE (hAChE)): 1%
- inhibition at 1 µM (human BChE (hBChE)): 3%

SMILES: C#CCN(C)c1nc(NCCOC)c2ccc(Cl)cc2n1 [II-6f, 7-chloro-N4-(2-methoxyethyl)-N2-methyl-N2-(prop-2-yn-1-yl)quinazoline-2,4-diamine]
- inhibition at 1 µM (human AChE (hAChE)): 9%
- inhibition at 1 µM (human BChE (hBChE)): 2%

SMILES: C#CCN(C)c1nc(NC2CC2)c2ccc(Cl)cc2n1 [II-6g, 7-chloro-N4-cyclopropyl-N2-methyl-N2-(prop-2-yn-1-yl)quinazoline-2,4-diamine]
- inhibition at 1 µM (human AChE (hAChE)): 4%
- inhibition at 1 µM (human BChE (hBChE)): 0%

SMILES: C#CCN(C)c1nc(NC)c2cc(OC)ccc2n1 [III-6b, 6-methoxy-N2,N4-dimethyl-N2-(prop-2-yn-1-yl)quinazoline-2,4-diamine]
- inhibition at 1 µM (human AChE (hAChE)): 4%
- inhibition at 1 µM (human BChE (hBChE)): 1%

SMILES: C#CCN(C)c1nc(NCC)c2cc(OC)ccc2n1 [III-6c, N4-ethyl-6-methoxy-N2-methyl-N2-(prop-2-yn-1-yl)quinazoline-2,4-diamine]
- inhibition at 1 µM (human AChE (hAChE)): 7%
- inhibition at 1 µM (human BChE (hBChE)): 2%

SMILES: C#CCN(C)c1nc(NC(C)C)c2cc(OC)ccc2n1 [III-6d, 6-methoxy-N2-methyl-N2-(prop-2-yn-1-yl)-N4-(propan-2-yl)quinazoline-2,4-diamine]
- inhibition at 1 µM (human AChE (hAChE)): 2%
- inhibition at 1 µM (human BChE (hBChE)): 2%

SMILES: C#CCN(C)c1nc(NCCCC)c2cc(OC)ccc2n1 [III-6e, N4-butyl-6-methoxy-N2-methyl-N2-(prop-2-yn-1-yl)quinazoline-2,4-diamine]
- inhibition at 1 µM (human AChE (hAChE)): 8%
- inhibition at 1 µM (human BChE (hBChE)): 1%

SMILES: C#CCN(C)c1nc(NCCOC)c2cc(OC)ccc2n1 [III-6f, 6-methoxy-N4-(2-methoxyethyl)-N2-methyl-N2-(prop-2-yn-1-yl)quinazoline-2,4-diamine]
- inhibition at 1 µM (human AChE (hAChE)): 6%
- inhibition at 1 µM (human BChE (hBChE)): 1%

SMILES: C#CCN(C)c1nc(NC2CC2)c2cc(OC)ccc2n1 [III-6g, N4-cyclopropyl-6-methoxy-N2-methyl-N2-(prop-2-yn-1-yl)quinazoline-2,4-diamine]
- inhibition at 1 µM (human AChE (hAChE)): 5%
- inhibition at 1 µM (human BChE (hBChE)): 0%

SMILES: C#CCN(C)c1nc(NC2CCCCC2)c2cc(OC)ccc2n1 [III-6h, N4-cyclohexyl-6-methoxy-N2-methyl-N2-(prop-2-yn-1-yl)quinazoline-2,4-diamine]
- inhibition at 1 µM (human AChE (hAChE)): 3%
- inhibition at 1 µM (human BChE (hBChE)): 2%

SMILES: Nc1c2c(nc3ccccc13)CCCC2 [THA, tacrine, reference compound]
- IC50 at 24 h (in vitro): 122.11 ± 0.02 µM
